According to patent publication US20080119513A1, “Sulfonamide Derivative Selectively Inhibiting Mmp-13” (priority 2004, published 2008):
pIC50: −log10 of the molar value.

How the values were obtained:
MMP-2 = biological target: T1, MMP-2 (Homo sapiens, UniProt P08253); experiment: Assay for inhibitory activities on MMPs (fluorogenic peptide substrate), MMP-2; format: biochemical
T1 sequence (P08253 110-660): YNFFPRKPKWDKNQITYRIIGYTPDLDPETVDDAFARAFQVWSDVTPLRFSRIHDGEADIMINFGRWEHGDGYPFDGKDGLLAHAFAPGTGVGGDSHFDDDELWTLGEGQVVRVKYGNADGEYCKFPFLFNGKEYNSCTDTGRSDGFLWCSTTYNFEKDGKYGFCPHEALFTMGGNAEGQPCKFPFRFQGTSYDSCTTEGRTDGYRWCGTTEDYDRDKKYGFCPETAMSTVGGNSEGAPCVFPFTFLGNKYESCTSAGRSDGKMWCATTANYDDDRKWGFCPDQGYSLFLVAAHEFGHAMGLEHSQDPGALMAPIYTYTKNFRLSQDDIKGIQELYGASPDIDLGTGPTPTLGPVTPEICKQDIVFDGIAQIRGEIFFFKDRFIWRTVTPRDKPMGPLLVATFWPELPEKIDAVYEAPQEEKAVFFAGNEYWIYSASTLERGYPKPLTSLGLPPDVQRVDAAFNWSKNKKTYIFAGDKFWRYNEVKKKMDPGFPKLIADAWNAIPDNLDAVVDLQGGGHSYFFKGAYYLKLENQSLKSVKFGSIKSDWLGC
How it was run: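 Human MMP-2 activity measured with fluorogenic MOCAc-Pro-Leu-Gly-Leu-A2Pr(DNP)-Ala-Arg-NH2 substrate. Percent inhibition derived from fluorescence with and without enzyme and inhibitor, corrected for substrate and inhibitor background. IC50 taken as concentration giving 50% inhibition.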

MMP-9 = MMP-9 (Homo sapiens, UniProt P14780); experiment: Assay for inhibitory activities on MMPs (fluorogenic peptide substrate), MMP-9; format: biochemical
How it was run: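 ProMMP-9 purified from TPA-stimulated HT1080 cells and activated with TPCK-trypsin, assayed with fluorogenic MOCAc-Pro-Leu-Gly-Leu-A2Pr(DNP)-Ala-Arg-NH2. Percent inhibition from fluorescence of reactions with and without enzyme and inhibitor; IC50 as concentration giving 50% inhibition.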

MMP-12 = biological target: T2, MMP-12 (Homo sapiens, UniProt P39900); experiment: Assay for inhibitory activities on MMPs (fluorogenic peptide substrate), MMP-12; format: biochemical
T2 construct: In regard to MMP-12, catalytic domain (^100Phe˜^263Gly) was amplified with RT-PCR; His-tag; enterokinase digestion-site
How it was run: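 Refolded His-tagged human MMP-12 catalytic domain (Phe100–Gly263) expressed in E. coli, assayed with fluorogenic substrate MOCAc-Pro-Leu-Gly-Leu-A2Pr(DNP)-Ala-Arg-NH2. Percent inhibition calculated from fluorescence with and without enzyme and inhibitor, corrected for inhibitor-only and substrate-only blanks; IC50 is concentration giving 50% inhibition.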

MMP-8 = biological target: T3, MMP-8 (Homo sapiens, UniProt P22894); experiment: Assay for inhibitory activities on MMPs (fluorogenic peptide substrate), MMP-8; format: biochemical
T3 construct: In regard to MMP-8, catalytic domain (^99Phe˜^262Gly) was amplified with PCR; His-tag; enterokinase digestion-site
How it was run: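 Human MMP-8 catalytic domain (Phe99–Gly262), His-tagged, E. coli-expressed, urea-solubilised, refolded. Fluorogenic substrate MOCAc-Pro-Leu-Gly-Leu-A2Pr(DNP)-Ala-Arg-NH2; fluorescence read with enzyme/inhibitor, substrate/inhibitor, enzyme-only and substrate-only wells. % inhibition = {1-(A−B)/(C−D)}×100; IC50 is concentration giving 50% inhibition.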

Rat osteoarthritis model = experiment: Inhibition of disease progression in the rat osteoarthritis model; format: in vivo; details: female SD rats, medial meniscectomy and collateral ligament transection; 10 mg/kg orally twice daily for 6 weeks
Method: Rat osteoarthritis model was prepared according to the procedure reported by Meacock et al. (J. Exp. Path. 71, 279-293, 1990), by medial meniscectomy and collateral ligament transection on the right knee of 12 weeks old female SD rats (Charles River Japan). 0.5% methylcellulose or compounds (II-3) or (III-11) (10 mg/kg) were orally administered twice daily from the following day of the surgery for 6 weeks.
On the next day of final administration, tibial plateaus were removed. The surfaces of the tibial plateau were stained with India ink (Kuretake), and then photographed using a digital camera (Nikon). The progressive level of OA lesion was scored using a photographic image thereof.

MMP-13 = biological target: T4, MMP-13 (Homo sapiens, UniProt P45452); experiment: Assay for inhibitory activities on MMPs (fluorogenic peptide substrate), MMP-13; format: biochemical
T4 construct: catalytic domain (^104Tyr˜^267Gly) was amplified with RT-PCR; His-tag; enterokinase digestion-site
How it was run: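 Catalytic domain cloned from IL-1/TNF-stimulated SW1353 cells, His-tagged and expressed in E. coli, then refolded from urea. Activity read by fluorescence on the MOCAc peptide substrate. IC50 taken from % inhibition = {1-(A-B)/(C-D)}×100, with blanks lacking enzyme and/or inhibitor.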

T3 sequence (P22894 99-262): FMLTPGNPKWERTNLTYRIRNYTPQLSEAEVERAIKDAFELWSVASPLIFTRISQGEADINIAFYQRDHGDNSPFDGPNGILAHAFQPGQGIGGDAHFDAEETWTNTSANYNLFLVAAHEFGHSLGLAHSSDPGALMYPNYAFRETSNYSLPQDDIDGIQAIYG
Sequence of MMP-9 (P14780 107-707): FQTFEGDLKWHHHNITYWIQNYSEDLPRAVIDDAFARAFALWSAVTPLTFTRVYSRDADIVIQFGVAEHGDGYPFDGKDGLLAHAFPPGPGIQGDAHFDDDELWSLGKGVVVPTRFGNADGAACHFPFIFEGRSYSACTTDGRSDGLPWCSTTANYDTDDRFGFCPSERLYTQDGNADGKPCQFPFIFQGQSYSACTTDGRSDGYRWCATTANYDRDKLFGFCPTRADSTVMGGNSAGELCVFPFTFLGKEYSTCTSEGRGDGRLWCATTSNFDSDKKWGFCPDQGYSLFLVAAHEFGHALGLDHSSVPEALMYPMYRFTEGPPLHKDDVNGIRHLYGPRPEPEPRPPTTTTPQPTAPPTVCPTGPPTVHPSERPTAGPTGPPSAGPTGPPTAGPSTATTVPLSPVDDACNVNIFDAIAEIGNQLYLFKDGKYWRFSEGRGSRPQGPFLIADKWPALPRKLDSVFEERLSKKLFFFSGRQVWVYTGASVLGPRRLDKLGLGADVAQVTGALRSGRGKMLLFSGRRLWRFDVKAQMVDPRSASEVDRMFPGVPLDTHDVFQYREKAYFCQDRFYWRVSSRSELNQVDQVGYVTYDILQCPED
T2 sequence (P39900 100-263): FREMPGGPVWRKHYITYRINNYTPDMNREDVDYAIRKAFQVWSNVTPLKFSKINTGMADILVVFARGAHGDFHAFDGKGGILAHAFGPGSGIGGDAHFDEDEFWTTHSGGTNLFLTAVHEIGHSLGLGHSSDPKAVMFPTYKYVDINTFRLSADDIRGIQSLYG

| Structure (SMILES) | pIC50 (MMP-2) | pIC50 (MMP-9) | pIC50 (MMP-12) | pIC50 (MMP-8) | pIC50 (MMP-13) | inhibitory activities (progressive level of OA lesion, scored) (Rat osteoarthritis model) |
| --- | --- | --- | --- | --- | --- | --- |
| O=C(O)[C@@H](Cc1ccccc1)NS(=O)(=O)c1ccc(-c2ccc(C#Cc3ccc4ccccc4c3)cc2)cc1 [III-11] | 6.79 | < 5.00 | 5.70 | 6.89 |  | 77.2% |
| C[C@@H](NS(=O)(=O)c1ccc(-c2ccc(NC(=O)c3ccc4ccccc4c3)cc2)cc1)C(=O)O [VI-37] | 6.14 | < 5.00 | < 5.00 | < 5.00 | 7.42 |  |
| CSCC[C@H](NS(=O)(=O)c1ccc(-c2ccc(NC(=O)c3ccc4ccccc4c3)cc2)cc1)C(=O)O [VI-44] | 6.30 | < 5.00 | 6.79 | 6.60 | 7.32 |  |
| C[C@@H](NS(=O)(=O)c1ccc(-c2ccc(NC(=O)c3ccc(OC(F)(F)F)cc3)cc2)cc1)C(=O)O [VI-21] | 6.98 | < 5.00 | 6.28 | < 5.00 | 7.43 |  |
| O=C(Nc1ccc(-c2ccc(S(=O)(=O)N[C@H](Cc3ccccc3)C(=O)O)s2)cc1)c1ccc2ccccc2c1 [VI-51] | 6.53 | < 5.00 | < 5.00 | < 5.00 | 7.65 |  |
| CCC(C)[C@H](NS(=O)(=O)c1ccc(-c2ccc(NC(=O)c3ccc4ccccc4c3)cc2)cc1)C(=O)O (some centres unmarked) [VI-43] | 6.61 | < 5.00 | 7.17 | 7.20 | 7.86 |  |
| COc1ccc2cc(C(=O)Nc3ccc(-c4ccc(S(=O)(=O)N[C@H](Cc5ccccc5)C(=O)O)cc4)cc3)ccc2c1 [VI-45] | < 5.00 | < 5.00 | < 5.00 | < 5.00 | 7.21 |  |

Now from value to molecule, other results behind:

| pIC50 (MMP-2) | pIC50 (MMP-9) | pIC50 (MMP-12) | pIC50 (MMP-8) | pIC50 (MMP-13) | Structure (SMILES) | inhibitory activities (progressive level of OA lesion, scored) (Rat osteoarthritis model) |
| --- | --- | --- | --- | --- | --- | --- |
| 7.14 | < 5.00 | 7.32 | 7.40 | 8.34 | CC(C)[C@@H](NS(=O)(=O)c1ccc(-c2ccc(C#Cc3ccc4ccccc4c3)cc2)cc1)C(=O)O [III-4] |  |
| 5.27 | < 5.00 | < 5.00 | 6.28 | 8.41 | COc1ccc2cc(C#Cc3ccc(-c4ccc(S(=O)(=O)N[C@H](CC(=O)O)C(=O)O)cc4)cc3)ccc2c1 [III-26] |  |
| 6.22 | < 5.00 | 7.29 | 7.38 | 7.79 | CCC(C)[C@H](NS(=O)(=O)c1ccc(-c2ccc(C#Cc3ccc4cc(OC)ccc4c3)cc2)cc1)C(=O)O (some centres unmarked) [III-23] |  |
| < 5.00 | < 5.00 | < 5.00 | < 5.00 | 8.25 | COc1ccc2cc(C#Cc3ccc(-c4ccc(S(=O)(=O)N[C@H](C)C(=O)O)cc4)cc3)ccc2c1 [III-17] |  |
| < 5.00 | < 5.00 | 6.27 | 6.29 | 6.89 | COc1ccc2cc(C#Cc3ccc(-c4ccc(S(=O)(=O)N[C@@H](C(=O)O)c5ccc(O)cc5)cc4)cc3)ccc2c1 [III-51] |  |
| < 5.00 | < 5.00 | 6.93 | 6.96 | 7.29 | COc1ccc2cc(C#Cc3ccc(-c4ccc(S(=O)(=O)N[C@H](CSC)C(=O)O)cc4)cc3)ccc2c1 [III-49] |  |
